Tests used:
hSTING REF allele = biological target: T1, hSTING REF allele (Homo sapiens, UniProt Q86WV6); assay: Differential scanning fluorometry (DSF) Tm shift with purified STING AA140-379; assay type: binding; settings: ligand 1 mM, 1 mg/ml STING AA140-379
T1 construct: DNA encoding amino acids 140-379 (amino acid numbering corresponding to Swiss Prot Q86WV6); 6xHIS-SUMO (with TEV site) (N, cleaved yes); made in house; host or cells: Rosetta2 (DE3) E. coli
Excerpt: (§1) DNA encoding amino acids 140-379 (amino acid numbering corresponding to Swiss Prot Q86WV6) was amplified from plasmids containing the full length sequence of human STING alleles via polymerase chain reaction with the following primers: forward […] (SEQ ID NO: 9) and reverse […] (SEQ ID NO: 10). STING variant alleles were assigned according to Yi, et al, (2013), PLoS One, 8(10), e77846 (DOI: 10.1371/journal.pone.0077846. PCR products were cloned into bacterial expression vector encoding a N-terminal hexa-histidine affinity tag (6×HIS) followed by a small ubiquitin-like modifier (SUMO) solubility sequence (Butt, et al, (2005) Protein expression and purification 43.1, 1-9) and tobacco etch virus protease cleavage site (TEV) using ligation independent cloning (Aslanidis, et al, (1990) Nucleic acids research, 18.20, 6069-6074).
(§2) Plasmids encoding 6×HIS-SUMO-TEV-STING amino acids 140-379 were transformed into Rosetta2 (DE3) E. coli cells (EMD Millipore) for protein expression. Cells were grown in lysogeny broth at 37° C. until a […] absorbance of 0.6 was reached. Cells were then transferred to 18° C. and protein expression was induced overnight by the addition of isopropyl β-D-1-thiogalactopyranoside to the media at a concentration of 0.25 mM. Cells were harvested by centrifugation at 6,000 times gravity for 10 minutes. Cell pellets were re-suspended on ice in a buffer containing 50 mM Tris hydrochloride (Tris-HCl) pH 7.5, 500 mM sodium chloride (NaCl), 20 mM imidazole, 10% glycerol, 1 mM tris(2-carboxyethyl)phosphine hydrochloride (TCEP) and protease inhibitor tablet (Pierce) (Buffer A). Cells were lysed using an S-450D sonifier (Emmerson industrial) on ice. Cell lysate was centrifuged at 15,000 times gravity for 30 minutes at 4° C. Soluble material was applied to nickel-nitrilotriacetic acid (Ni-NTA) coupled Sepharose CL-6B (Qiagen) for 1 hour with gentle rocking at 4° C. After transfer to a gravity flow poly-prep column (Bio-Rad), resin was washed extensively in buffer A. Protein was eluted from the column in a buffer containing 20 mM Tris-HCl pH 7.5, 150 mM NaCl, 300 mM imidazole, 10% glycerol and 0.5 mM TCEP. To remove the 6×HIS-SUMO tag eluted protein was mixed with TEV protease (Sigma) at a ratio of 1:250 (w:w) and dialyzed overnight against a buffer containing 20 mM Tris-HCl pH 7.5, 150 mM NaCl, 5 mM imidazole, 10% glycerol and 0.5 mM TCEP. TEV protease and 6×HIS-SUMO tags were depleted by the addition of Ni-NTA resin (Qiagen) to the sample, purified STING amino acids 140-379 was collected by removal of the resin using a poly-prep column STING AA140-379 was concentrated with a 10,000 Dalton molecular weight cutoff centrifuge concentrator (EMD Millipore) to a final concentration of approximately 10 mg/ml. Protein was aliquoted, flash frozen in liquid nitrogen and stored at −80° C. until use.
(§3) Differential scanning fluorometry (DSF) is a technique that measures the ability of ligands to bind to and stabilize purified proteins (Niesen, et al, (2007) Nature protocols 2.9, 2212-2221). The protein is heated in the presence of a dye that binds to and fluoresces in hydrophobic environments. The protein is thermally denatured by heating resulting in increased dye binding to the unfolded protein and fluorescence. The temperature midpoint (Tm) of a proteins denaturation is established by calculating the half maximal value of the denaturation curve. The temperature midpoint of the protein in the presence of a ligand is directly related to the affinity of the ligand for the protein and therefore its ability to stabilize the protein at higher temperatures.
(§4) DSF was performed in a 20 μL reaction comprising 20 mM Tris-HCl pH 7.5, 150 mM NaCl, 1:500 dilution of SYPRO Orange (Life Technologies), 1 mg/ml purified STING AA140-379 protein and ligand at a concentration of 1 mM. Wild type hSTING, HAQ allele hSTING and/or REF allele hSTING were used with scaffold molecules of the invention as listed in Table 2.

hSTING WT = biological target: T2, hSTING WT (Homo sapiens, UniProt Q86WV6, H232R); assay: as above; assay type: binding; settings: ligand 1 mM, 1 mg/ml STING AA140-379
T2 construct: DNA encoding amino acids 140-379 (amino acid numbering corresponding to Swiss Prot Q86WV6); 6xHIS-SUMO (with TEV site) (N, cleaved yes); made in house; host or cells: Rosetta2 (DE3) E. coli
T2 sequence (Q86WV6 140-379 H232R): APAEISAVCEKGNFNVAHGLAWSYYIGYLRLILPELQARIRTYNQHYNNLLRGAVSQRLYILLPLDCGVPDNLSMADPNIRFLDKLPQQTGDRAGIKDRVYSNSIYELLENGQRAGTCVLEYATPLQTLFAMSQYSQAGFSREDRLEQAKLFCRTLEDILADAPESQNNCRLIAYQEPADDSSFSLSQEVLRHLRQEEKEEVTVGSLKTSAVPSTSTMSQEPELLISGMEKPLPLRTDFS
Excerpt: as §1, §2, §3, §4

T1 sequence (Q86WV6 140-379): as the sequence (Q86WV6 140-379 H232R) above, with R93H counted along it

Row | hSTING Tm Shift REF (hSTING REF allele) [°C] | hSTING Tm Shift WT (hSTING WT) [°C] | SMILES
1 | 8.3 | 12.2 | Nc1nc(N)c2ncn([C@@H]3O[C@@H]4CO[P@@](=O)(S)O[C@H]5[C@@H](O)[C@H](n6cnc7c(N)nc(N)nc76)O[C@@H]5CO[P@@](=O)(S)O[C@H]4[C@H]3O)c2n1 [Compound 23, (2R,3R,3aS,5R,7aR,9R,10R,10aS,12R,14aR)-2,9-bis(2,6-diamino-9H-purin-9-yl)-3,10-dihydroxy-5,12-dimercaptooctahydro-2H,7H-difuro[3,2-d:3′,2′-j][1,3,7,9]tetraoxa[2,8]diphosphacyclododecine 5,12-dioxide]
2 | 3.1 | 10.0 | Nc1nc(N)c2ncn([C@@H]3O[C@@H]4CO[P@@](=O)(S)O[C@H]5[C@@H](O)[C@H](n6cnc7c(N)nc(N)nc76)O[C@@H]5CO[P@](=O)(S)O[C@H]4[C@H]3O)c2n1 [Compound 23a, (2R,3R,3aS,5R,7aR,9R,10R,10aS,12S,14aR)-2,9-bis(2,6-diamino-9H-purin-9-yl)-3,10-dihydroxy-5,12-dimercaptooctahydro-2H,7H-difuro[3,2-d:3′,2′-j][1,3,7,9]tetraoxa[2,8]diphosphacyclododecine 5,12-dioxide]
3 | 10.5 | 10.7 | CC(C)C(=O)Nc1nc2c(ncn2[C@@H]2O[C@@H]3CO[P@@](=O)(S)O[C@H]4[C@@H](F)[C@H](n5cnc6c(=O)[nH]c(NC(=O)C(C)C)nc65)O[C@@H]4CO[P@@](=O)(S)O[C@H]3[C@H]2F)c(=O)[nH]1 [Compound 32, N,N′-(((2R,3R,3aR,5R,7aR,9R,10R,10aR,12R,14aR)-3,10-difluoro-5,12-dimercapto-5,12-dioxidooctahydro-2H, 7H-difuro[3,2-d:3′,2′-j][1,3,7,9]tetraoxa[2,8]diphosphacyclododecine-2,9-diyl)bis(6-oxo-6,9-dihydro-1H-purine-9,2-diyl))bis(2-methylpropanamide)]
4 | 7.5 | 8.2 | Nc1ccn([C@@H]2O[C@@H]3CO[P@@](=O)(S)O[C@H]4[C@@H](F)[C@H](n5cnc6c(N)ncnc65)O[C@@H]4CO[P@@](=O)(S)O[C@H]3[C@H]2F)c(=O)n1 [Compound 37, 4-amino-1-((2R,3R,3aR,5R,7aR,9R,10R,10aR,12R,14aR)-9-(6-amino-9H-purin-9-yl) 3,10-difluoro-5,12-dimercapto 5,12-dioxidooctahydro-2H,7H-difuro[3,2-d:3′,2′-j][1,3,7,9]tetraoxa[2,8]diphosphacyclododecin-2-yl)pyrimidin-2(1H)-one]
5 | 5.3 | 5.6 | Nc1ccn([C@@H]2O[C@@H]3CO[P@](=O)(S)O[C@H]4[C@@H](F)[C@H](n5cnc6c(N)ncnc65)O[C@@H]4CO[P@@](=O)(S)O[C@H]3[C@H]2F)c(=O)n1 [Compound 37a, 4-amino-1-((2R,3R,3aR,5R,7aR,9R,10R, 10aR,12S,14aR)-9-(6-amino-9H-purin-9-yl)-3,10-difluoro-5,12-dimercapto-5,12-dioxidooctahydro-2H,7H-difuro[3,2-d: 3′,2′-j][1,3,7,9]tetraoxa[2,8]diphosphacyclododecin-2-yl)pyrimidin-2(1H)-one]
6 | 2.3 | 2.0 | Nc1ncnc2c1ncn2[C@H]1O[C@H]2CO[P@](=O)(S)O[C@@H]3[C@H](O)[C@@H](n4cnc5c(N)ncnc54)O[C@H]3CO[P@](=O)(S)O[C@@H]2[C@@H]1O [Compound 48, (2S,3S,3aR,5S,7aS,9S,10S,10aR,12S,14aS)-2,9-bis(6-amino-9H-purin-9-yl)-3,10-dihydroxy-5,12-dimercaptooctahydro-2H,7H-difuro[3,2-d:3′,2′-j][1,3,7,9]tetraoxa[2,8]diphosphacyclododecine 5,12-dioxide]
7 | 6.3 | 2.9 | Nc1ncnc2c1ncn2[C@H]1O[C@H]2CO[P@@](=O)(S)O[C@@H]3[C@H](O)[C@@H](n4cnc5c(N)ncnc54)O[C@H]3CO[P@](=O)(S)O[C@@H]2[C@@H]1O [Compound 48a, Triethylammonium (2S,3S,3aR,5R,7aS,9S,10S,10aR,12S,14aS)-2,9-bis(6-amino-9H-purin-9-yl)-3,10-dihydroxyoctahydro-2H, 7H-difuro[3,2-d: 3′,2′-j][1,3,7,9]tetraoxa[2,8]diphosphacyclododecine-5,12-bis(thiolate) 5,12-dioxide]
8 | 6.4 | 3.0 | Nc1ncnc2c1ncn2[C@H]1O[C@H]2CO[P@@](=O)(S)O[C@@H]3[C@H](O)[C@@H](n4cnc5c(N)ncnc54)O[C@H]3CO[P@@](=O)(S)O[C@@H]2[C@@H]1O [Compound 48b, triethylammonium (2S,3S,3R,5R,7aS,9S,10S,10aR,12R,14aS)-2,9-bis(6-amino-9H-purin-9-yl)-3,10-dihydroxyoctahydro-2H,7H-difuro[3,2-d: 3′,2′-j][1,3,7,9]tetraoxa[2,8]diphosphacyclododecine-5,12-bis(thiolate) 5,12-dioxide]

Row | SMILES | hSTING Tm Shift REF (hSTING REF allele) [°C] | hSTING Tm Shift WT (hSTING WT) [°C]
9 | CC(C)(C)[Si](C)(C)O[C@H]1[C@H]2O[P@@](=O)(S)OC[C@H]3O[C@@H](n4cnc5c(N)ncnc54)[C@H](F)[C@@H]3O[P@](=O)(S)OC[C@H]1O[C@H]2n1cnc2c(N)ncnc21 [Compound 6a, dithio-[SP, RP]-cyclic-[3′OTBS-A(2′,5′)p-2′F-A(3′,5′)p]] | 4.8 | 9.0

Source: patent publication US20180369268A1, “METHODS FOR IDENTIFYING INHIBITORS OF "STIMULATOR OF INTERFERON GENE"- DEPENDENT INTERFERON PRODUCTION” (ADURO BIOTECH, INC., priority 2015, published 2018)
